Legend:
Cyclin K [1] = experiment: Cyclin K levels by Western blot after single-concentration treatment; format: cell-based, human; settings: HEK293T cells, 1 μM for 2 h, quantified from Western blots, mean ± SD, three independent experiments
Method: (§1) HEK293T human […] kidney cells were cultured in DMEM (Gibco/Life Technologies), containing 25 mM D-glucose, 4 mM L-glutamine, and 1 mM sodium pyruvate, and supplemented with 10% (v/v) FBS and 1% nonessential amino acids (Gibco/Life Technologies). Cells were incubated at 37 °C in a humidified atmosphere with 5% CO2.
(§2) Cells were washed with PBS and lysed (20 mM HEPES pH 7.5, 10% glycerol, 0.4 M KCl, 0.4% Triton X-100, 15 mM EDTA, and 1× protease and phosphatase inhibitors). The insoluble fraction was removed by centrifugation. Protein quantification was performed using a Bradford assay and compared to a BSA calibration curve. Equal amounts of lysates were run on SDS–PAGE 4–12% Bis–Tris Protein Gels (NuPAGE, Thermo Fisher Scientific) and then transferred onto Immobilon-P PVDF Membrane (Millipore, IPVH00010) using a Mini Trans-Blot Cell (Bio-Rad, 1703930). The membranes were blocked with 5% bovine albumin serum (BSA) in Tris-buffered saline with Tween 20 (TBS-T) and incubated with primary antibodies overnight at 4 °C. The membranes were washed three times with TBS-T and incubated with HRP-conjugated secondary antibody (BioRad) for 2 h. Membranes were washed again three times with TBS-T before being developed using Pierce ECL Western Blotting Substrate (Thermo, 32106) and visualized using LI-COR. Antibodies were purchased from Cell Signaling Technology: anti-GAPDH (D4C6R) and anti-DDB1 (D4C8) or Bethyl Laboratories: anti-Cyclin K (A301-939A). The following HRP-linked secondary antibodies were used by dilution in 5% BSA/TBS-T: antirabbit IgG (BioRad, 5213–2504) and antimouse IgG (BioRad, 103005).
(§3) Unedited blots containing the marker lane are available on request. Western blots were quantified using ImageJ. Cyclin K levels were normalized using GAPDH as a loading control. DC50 values were calculated from concentration–response curves using nonlinear regression fit to a 4-parameter curve by GraphPad Prism.

Cyclin K [2] = experiment: Cyclin K degradation concentration-response (DC50, DMax) by Western blot; format: cell-based, human; settings: HEK293T, Western blot quantification, 3 biological repeats
Method: With the aim of comparing the degradation ability of the new analogues, we derived DC50 values by using Western blotting (Table 5). […] This approach has been previously used to improve the potency of BCL6 degraders.[33] We therefore also measured CDK12 affinity using the KINOMEscan binding assay (Table 5).[34]
as §1, §2, §3

PAMPA permeability = format: in vitro ADME; settings: pH 7.4; PAMPA, pH7.4; read-out: pH7.4 Papp x 10^-6
CDK12 / DDB1 = tested on: CDK12 / DDB1; set-up: method as in PMID 32494016; settings: in vitro; cited from earlier work
[3] = set-up: method as in PMID 32494016; settings: after 5 h of treatment; cited from earlier work

DC50 (Cyclin K [2]; read-out: CycK DC50): […] | Papp (PAMPA permeability): 45.4 ×10⁻⁶ cm/s
SMILES: CC[C@H](CO)Nc1nc(NCc2ccc(-c3ccccn3)cc2)c2ncn(C(C)C)c2n1 [compound 1, reference compound]
Remaining Cyclin K (%) (Cyclin K [1]): 1 ± 1% | DMax (%) (Cyclin K [2]): […] | stabilization of the CDK12-DDB1 interaction compared to apo-form (CDK12 / DDB1): 1000 fold | number of other proteins depleted by at least twofold [3]: […]
